Eight molecules from paper PMC12566723, “Boronic Derivatives of Thiosemicarbazones as Tyrosinase Inhibitors” (Pharmaceutics, 2025) can be followed below.

In assay [1] the test system is SK-MEL-3, Hs294T, KU-19-19, MCF-10A cell lines. Put plainly: Antiproliferative activity by sulforhodamine B assay, statements across the cell line panel. Format: cell-based. The following applies: for IC50 in SK-MEL-3 relative to the Hs294T cell line: SK-MEL-3 vs Hs294T, fold higher; for antiproliferative effects in words: up to a concentration of 100 µM. As to the method:
(§1) Cell lines. The Hs-294T (HTB-140), MCF-10A, and SK-MEL-3 (HTB-69) cell lines were purchased from the American Type Culture Collection (ATCC; Rockville, MD, USA). The KU-19-19 was purchased from Leibniz Institute DSMZ-German Collection of Microorganisms and Cell Cultures GmbH (Braunschweig, Germany). Hs-294T, SK-MEL-3, and KU-19-19 (ACC 395) cell lines were cultured in Dulbecco’s Modified Eagle Medium (DMEM; Biowest, Nuaille, France) supplemented with 10% (v/v) fetal bovine serum (FBS; GE Healthcare HyClone, Logan, UT, USA), 2 mM L-glutamine (Sigma-Aldrich, Poznań, Poland). The MCF-10A cell line was cultured in Ham’s F12 medium with glutamine (Corning Costar, Warsaw, Poland) supplemented with 5% (v/v) FBS, 5% (v/v) horse serum, 10 µg/mL insulin, 0.05 µg/mL cholera toxin, 0.5 µg/mL hydrocortisone, and 20 ng/mL hEGF (all from Sigma-Aldrich). All culture media contained 100 µg/mL streptomycin (Sigma-Aldrich) and 100 U/mL penicillin (PolfaTarchomin SA, Warsaw, Poland). The cell lines were tested for mycoplasma contamination using Venor GeM Classic (Minerva Biolabs, Berlin, Germany) with negative results in all cases. Cell lines were cultured in a humidified atmosphere at 37 °C with 5% (v/v) CO2 and passaged twice a week using ethylenediaminetetraacetic acid (EDTA)-Trypsin solution (pH 8; HIIET, Wroclaw, Poland) as a detachment agent.
(§2) Antiproliferative activity assessment by sulforhodamine B assay. The cells were seeded on 384-well plates (Greiner Bio One, Kremsmünster, Austria) at a density of 1 × 10^3 cells/well and, after overnight attachment, were exposed to compounds at various concentrations (at least eight concentrations). After 72 h, the sulforhodamine B (SRB) assay based on Skehan et al. was performed with minor modifications. Briefly, cell were fixed with 20% (w/v) trichloroacetic acid (Avantor Performance Materials, Gliwice, Poland) for 1 h, washed several times with tap water, and stained with 20 µL of 0.1% (w/v) solution of sulforhodamine B (Sigma-Aldrich, Poznan, Poland) in 1% (v/v) acetic acid (Avantor Performance Materials, Gliwice, Poland). After 30 min of incubation at room temperature, the unbound dye was washed out with 1% (v/v) acetic acid, whereas the bound dye was solubilized with 70 µL of a 10 mM unbuffered tris(hydroxymethyl)aminomethane (TRIS; Avantor Performance Materials, Gliwice, Poland) solution. The entire procedure was performed using Biotek EL-406 washing station (BioTek Instruments, Winooski, VT, USA). Absorbance was read using a Biotek Hybrid H4 reader (BioTek Instruments, Winooski, VT, USA) at 540 nm wavelength. Proliferation inhibition (%Inh) was calculated using the following formula: %Inh = [((A_p − A_m)/(A_k − A_m)) × 100] − 100, where Am—absorbance of cell-free medium (blank), Ak—absorbance for vehicle-treated cells (control), Ap—absorbance for compound-treated cells. […] 10.5.0 (GraphPad Software Inc., San Diego, CA, USA) using the [inhibitor] vs. response—variable slope (four parameters) Hill’s equation, based on at least three biological, independent repeats.
In view of the results obtained from studies on the inhibitory activity of boronate derivatives of thiosemicarbazones against tyrosinase, we decided to test their ability to inhibit the growth and proliferation of tumor lines that overexpress tyrosinase. For this purpose, we tested antiproliferative activity on selected cell lines. Initial antiproliferative screening was conducted using a tissue-agnostic approach on a select panel of cell lines. […]
(In general: Sulforhodamine B stains cellular protein and so reports cell mass.)

A further assay relates to SK-MEL-3. Put plainly: Antiproliferative activity by sulforhodamine B assay, SK-MEL-3. The note with it: SRB; for IC50: SK-MEL-3, 72 h; for inhibition at 100 µM: SK-MEL3, read-out: proliferation inhibition at 100µM (reported if IC50 > 100 µM), SK-MEL-3, 100 µM, 72 h. It is filed as cell-based. As to the method:
as §1, §2

Another assay has as its system KU-19-19. The experiment in a line: Antiproliferative activity by sulforhodamine B assay, KU-19-19. Format: cell-based. The following applies: SRB; for IC50: KU-19-19, 72 h; for inhibition at 100 µM: read-out: proliferation inhibition at 100µM (reported if IC50 > 100 µM), KU-19-19, 100 µM, 72 h. The procedure:
as §1, §2

A further assay relates to MCF-10A. Put plainly: Antiproliferative activity by sulforhodamine B assay, MCF-10A. The note with it: for IC50: 72 h, SRB; for inhibition at 100 µM: read-out: proliferation inhibition at 100µM (reported if IC50 > 100 µM), 100 µM, 72 h, SRB. Format: cell-based. The procedure:
as §1, §2

The test system of another assay is Hs-294T. The experiment in a line: Antiproliferative activity by sulforhodamine B assay, Hs-294T. The following applies: for IC50: 72 h, SRB; for inhibition at 100 µM: read-out: proliferation inhibition at 100µM (reported if IC50 > 100 µM), 100 µM, 72 h, SRB. It is filed as cell-based. The procedure: as §1, §2
The target in the next assay is mushroom tyrosinase (Agaricus bisporus, UniProt C7FF04). Put plainly: Tyrosinase enzymatic assay (diphenolase activity, L-DOPA substrate, dopachrome at 475 nm). It is filed as biochemical. The following applies: para-substituted analogue vs carboxylic acid of ref 30.

Counter-ions that a name gives are not always drawn.

Chain of mushroom tyrosinase (C7FF04 2-392): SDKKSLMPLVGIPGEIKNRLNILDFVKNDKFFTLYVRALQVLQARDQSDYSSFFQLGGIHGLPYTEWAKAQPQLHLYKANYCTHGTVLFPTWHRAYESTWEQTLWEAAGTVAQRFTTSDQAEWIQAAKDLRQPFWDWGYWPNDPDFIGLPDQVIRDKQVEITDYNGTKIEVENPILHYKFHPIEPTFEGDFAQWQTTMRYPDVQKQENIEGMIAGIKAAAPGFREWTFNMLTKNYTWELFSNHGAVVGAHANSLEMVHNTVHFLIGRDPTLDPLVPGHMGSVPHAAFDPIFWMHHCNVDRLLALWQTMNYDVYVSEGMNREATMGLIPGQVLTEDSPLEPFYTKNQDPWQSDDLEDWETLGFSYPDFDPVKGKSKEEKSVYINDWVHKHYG
Chain of mushroom tyrosinase (G1K3P4 1-150 partner): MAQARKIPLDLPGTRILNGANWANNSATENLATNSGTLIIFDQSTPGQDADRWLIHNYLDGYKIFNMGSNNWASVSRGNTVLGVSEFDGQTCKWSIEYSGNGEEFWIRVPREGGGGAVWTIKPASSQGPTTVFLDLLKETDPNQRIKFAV

On to `[NH2][Pt]([NH2])([Cl])[Cl]` [CDDP, Cisplatin, reference compound], for which the “IC50 in SK-MEL-3 relative to the Hs294T cell line” value in assay [1] turned out to be 6.9 fold. Besides, the IC50 (as a rule, the concentration needed to halve the response being measured) in the assay with SK-MEL-3 is 15 µM; in the assay with KU-19-19 it was 4.46 µM; in the assay with MCF-10A, 3.03 µM; in the assay on Hs-294T it was 2.17 µM.

Consider `NC(=S)N1N=Cc2ccccc2B1O` [Compound 1], for which the inhibition at 100 µM was determined as 43.4% in the assay on SK-MEL-3 (Homo sapiens), 21.4% in the assay on KU-19-19 (Homo sapiens), 42.7% in the assay on MCF-10A (Homo sapiens) and 55.4% in the assay with Hs-294T (Homo sapiens).

For `NC(=S)NN=Cc1cccc(B(O)O)c1` [Compound 2], the inhibition at 100 µM with SK-MEL-3 (Homo sapiens) stood at 50.7%; in the assay on KU-19-19 (Homo sapiens), 11.3%; with MCF-10A (Homo sapiens) it was 30.7%; with Hs-294T (Homo sapiens) it was 37.6%.

In the case of `NC(=S)N/N=C/c1ccc(B(O)O)cc1` [Compound 3], the “antiproliferative effects in words” value in assay [1] is “minimal antiproliferative effects”. In addition, the inhibition at 100 µM in the assay with SK-MEL-3 (Homo sapiens) was 31.8%; in the assay with KU-19-19 (Homo sapiens), 5.4%; with MCF-10A (Homo sapiens) it was 31.7%; in the assay on Hs-294T (Homo sapiens) it was 13.9%.

For the molecule `CC1=NN(C(N)=S)B(O)c2ccccc21` [Compound 4], the IC50 is 55 to 79.4 µM in assay [1] (all four cell lines, 72 h, SRB, read-out: IC50 values, range over the tested cell lines); 68.5 µM in the assay on SK-MEL-3 (Homo sapiens, SK-MEL3); 69 µM with KU-19-19 (Homo sapiens); 55 µM in the assay on MCF-10A (Homo sapiens); 79.4 µM with Hs-294T (Homo sapiens).

In the assay with SK-MEL-3 (Homo sapiens, SK-MEL3), `C/C(=N\NC(N)=S)c1cccc(B(O)O)c1` [Compound 5] showed an IC50 of 56.1 µM. Also, the inhibition at 100 µM came out at 26.8% with KU-19-19 (Homo sapiens), 37.1% in the assay with MCF-10A (Homo sapiens) and 35.9% in the assay with Hs-294T (Homo sapiens).

As for `C/C(=N\NC(N)=S)c1ccc(B(O)O)cc1` [Compound 6], the “antiproliferative effects in words” value in assay [1] is “minimal antiproliferative effects”. The inhibition at 100 µM was found to be 37.3% with SK-MEL-3 (Homo sapiens), 9.5% in the assay on KU-19-19 (Homo sapiens), 32.8% in the assay on MCF-10A (Homo sapiens) and 13.9% in the assay on Hs-294T (Homo sapiens). The “IC50 against tyrosinase compared with the corresponding carboxylic acid” value on mushroom tyrosinase was “four times lower”.

For `COc1cccc2c1C(=O)c1c(O)c3c(c(O)c1C2=O)C[C@@](O)(C(=O)CO)C[C@@H]3O[C@H]1C[C@H](N)[C@H](O)[C@H](C)O1` [Doxo, Doxorubicin hydrochloride, reference compound], the “IC50 in SK-MEL-3 relative to the Hs294T cell line” value in assay [1] turned out to be 14.5 fold. The IC50 with SK-MEL-3 (Homo sapiens, SK-MEL3) was found to be 0.016 µM; with KU-19-19 (Homo sapiens), 0.0016 µM; in the assay with MCF-10A (Homo sapiens), 0.00051 µM; with Hs-294T (Homo sapiens) it was 0.0011 µM.
